Holding throughout (experiment): Comparison of activities of polymyxins B and F, MIC
Format in all cases: cell-based

For one assay, the system named is Escherichia coli SC8600. The note with it: Polymyxin-resistant variant of E. coli SC8599. The source says: (§1) *Organisms from the Squibb Culture Collection.
^a Polymyxin-resistant variant of E. coli SC8599

The subject of another assay is Escherichia coli SC9252. The note with it: Polymyxin-resistant variant of E. coli SC9251.
Excerpt: as §1
(§2) ^b Polymyxin-resistant variants of E. coli SC9251

A further assay relates to Escherichia coli SC9253. The following applies: Polymyxin-resistant variant of E. coli SC9251.
Excerpt: as §1, §2

A further assay concerns Escherichia coli SC8599. The note with it: E. coli SC8599.
Excerpt: as §1

The subject of a further assay is Escherichia coli SC9251. The note with it: E. coli SC9251.
Excerpt: as §1

A value given as a limit tells only on which side of the number the result lay.

In general, MIC refers to the lowest concentration found to suppress growth. Read a high MIC as a need for much substance. On to Polymyxin B, for which the minimal inhibitory concentration (MIC) against Escherichia coli SC8600 is more than 100 mg/L; in the assay with Escherichia coli SC9252, 18.7 mg/L; with Escherichia coli SC9253 it was 50.0 mg/L; in the assay with Escherichia coli SC8599, 0.1 mg/L; with Escherichia coli SC9251 it was 0.06 mg/L.

Values taken from patent US4091092A, “Polymyxin F and process of producing polymyxin F” (priority 1977, dated 1978).
